Assay results as given in publication PMC6934184, “Selective DNA-PKcs inhibition extends the therapeutic index of localized radiotherapy and chemotherapy” (The Journal of Clinical Investigation, 2019).

Biological target: T1, ICK (Homo sapiens, UniProt Q9UPZ9)
T1 construct: purchased Thermo Fisher Scientific (Life Technologies) SelectScreen
Experiment: SelectScreen LanthaScreen
Format: binding
Details: read-out: % displacement
In short: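 SelectScreen broad panel; activity (Z'LYTE, Adapta) plus binding formats. ATP: Km app for CSF1R Z'LYTE; 10 for CAMK1 Adapta. Readout = % per kinase.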

T1 sequence (Q9UPZ9 whole entry): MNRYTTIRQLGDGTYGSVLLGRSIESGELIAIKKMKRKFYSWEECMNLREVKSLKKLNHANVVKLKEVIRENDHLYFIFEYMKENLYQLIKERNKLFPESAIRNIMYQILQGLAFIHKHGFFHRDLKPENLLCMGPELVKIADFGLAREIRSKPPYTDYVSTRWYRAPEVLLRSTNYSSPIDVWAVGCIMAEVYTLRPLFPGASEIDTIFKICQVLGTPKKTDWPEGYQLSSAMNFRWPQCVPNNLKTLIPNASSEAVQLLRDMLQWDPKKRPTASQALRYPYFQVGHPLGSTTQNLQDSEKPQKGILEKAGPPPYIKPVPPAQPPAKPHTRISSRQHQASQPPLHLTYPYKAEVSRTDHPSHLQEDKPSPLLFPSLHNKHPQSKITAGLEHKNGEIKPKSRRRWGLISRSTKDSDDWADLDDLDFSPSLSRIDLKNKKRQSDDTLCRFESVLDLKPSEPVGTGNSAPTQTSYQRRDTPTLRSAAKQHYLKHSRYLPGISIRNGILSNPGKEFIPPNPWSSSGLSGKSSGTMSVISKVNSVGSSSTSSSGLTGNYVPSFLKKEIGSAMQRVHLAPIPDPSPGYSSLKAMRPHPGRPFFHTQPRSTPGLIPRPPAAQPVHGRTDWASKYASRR

CN(C(=O)CN1CCOCC1)c1ccc2sc3c(-c4cccc5c(=O)cc(N6CC7CCC(C6)O7)oc45)cccc3c2c1 [NU5455]
inhibition at 1 µM: 0%
